Measurements: EP4491627A1, “SYNTHETIC CA[…] ON CHROMENO[…] AND USE THEREOF” (Consejo Superior De Investigaciones Científicas, priority 2023, dated 2025)

Tested on: primary neuronal cultures
Test: cAMP assay in primary neuronal cultures
Format: cell-based, Sprague Dawley rats
Settings: primary cultures of cortical neurons; Figure 5
Protocol: • Fig. 1. Graphics of the dose-response corresponding to the HTFR (Homogeneous Time Resolved Fluorescence) assays performed with chromenopyrimidines Example 1, Example 2 and Example 3. A) Competition assay snap-CB1; red ligand used at 100 nM; B) Competition assay snap-CB2; red ligand used at 20 nM. • Fig. 2. cAMP (Cyclic adenosine monophosphate) experiments performed with novel chromenopyrimidines (Example 1, Example 2 and Example 3). A) In HEK293 cells transfected with CB1; B) In HEK293 cells transfected with CB2. • Fig. 3. Graphics of the dose-response corresponding to the MAPK (mitogen-activated protein kinase) experiments performed with novel chromenopyrimidines (Example 1, Example 2 and Example 3). A) In HEK293 cells transfected with CB1; B) In HEK293 cells transfected with CB2. • Fig. 4. Graphics of the dose-response corresponding to the β-arrestin2 recruitment assays performed with Example 1, Example 2 and Example 3. A) In HEK293 cells transfected with CB1; B) In HEK293 cells transfected with CB2. • Fig. 5. Graphics of the dose-response corresponding to the cAMP assays performed with Example 1, Example 2 and Example 3 in neurons. • Fig. 6. Graphics of the dose-response of reference cannabinoids ACEA and anandamide in cAMP and MAPK assays in HEK293-CB1 cells. • Fig. 7. […]
In the present invention, cannabinoid affinity was evaluated using Homogeneous Time Resolved Fluorescence (HTFR) binding assays. Cannabinoid activity was assessed using an array of functional assays including cAMP, MAPK and barrestin2 recruitment in CB1 and CB2 transfected HEK293 cells. […]
Two hours before initiating the experiment, HEK-293T cells medium was replaced by serum-starved DMEM medium. […] Readings were performed after 60 min incubation at 25°. Homogeneous time-resolved fluorescence energy transfer (HTRF) measures were performed using the Lance Ultra cAMP kit (PerkinElmer, Waltham, MA, USA). Fluorescence at 665 nm was analysed on a PHERAstar Flagship microplate reader equipped with an HTRF optical module (BMG Lab technologies, Offenburg, Germany). […]

Compound | cannabinoid agonistic activity in primary neuronal cultures using cAMP assays
CCCCCCC(C)(C)c1cc(O)c2c(c1)OC(C)(C)c1cncnc1-2 [Example 1, 8-(1,1-Dimethylheptyl)-5,5-dimethylchromeno[4,3-d]pyrimidin-10-ol] | cannabinoid agonistic activity
CCCCCCC(C)(C)c1cc(OC)c2c(c1)OC(C)(C)c1cncnc1-2 [Example 2, 8-(1,1-Dimethylheptyl)-10-methoxy-5,5-dimethylchromeno[4,3-d]pyrimidine] | cannabinoid agonistic activity
CCCCCCC(C)(C)c1cc(OCc2ccccc2)c2c(c1)OC(C)(C)c1cncnc1-2 [Example 3, 10-Benzyloxy-8-(1,1-dimethylheptyl)-5,5-dimethylchromeno[4,3-d]pyrimidine] | cannabinoid agonistic activity
